Data reported in patent US10167262B2, “Herbicidal substituted 3-arylpyrazoles” (FMC CORPORATION, priority 2014, dated 2019).

Key:
Experiment in all cases: Test A pre-/postemergence greenhouse herbicide test, visual injury rating 0-100
Assay type in all cases: in vivo
[1] = test system: wheat (Triticum aestivum)
Description: (§1) Seeds of plant species selected from barnyardgrass (Echinochloa crus-galli), large (Lg) crabgrass (Digitaria sanguinalis), giant foxtail (Setaria faberii), morningglory (Ipomoea spp.), pigweed (Amaranthus retroflexus), velvetleaf (Abutilon theophrasti), wheat (Triticum aestivum), and corn (Zea mays) were planted into a blend of loam soil and sand and treated preemergence with a directed soil spray using test chemicals formulated in a non-phytotoxic solvent mixture which included a surfactant. At the same time these species were also treated with postemergence applications of test chemicals formulated in the same manner. Plants ranged in height from 2 to 10 cm and were in the one- to two-leaf stage for the postemergence treatment. Treated plants and untreated controls were maintained in a greenhouse for approximately 10 days, after which time all treated plants were compared to untreated controls and visually evaluated for injury. Plant response ratings, summarized in Table A, are based on a 0 to 100 scale where 0 is no effect and 100 is complete control. A dash (-) response means no test result.

[2] = test system: barnyardgrass (Echinochloa crus-galli)
Description: as §1

corn (Zea mays) = test system: corn (Zea mays)
Description: as §1

[3] = test system: large (Lg) crabgrass (Digitaria sanguinalis)
Description: as §1

[4] = test system: giant foxtail (Setaria faberii)
Description: as §1

[5] = test system: morningglory (Ipomoea spp.)
Description: as §1

[6] = test system: pigweed (Amaranthus retroflexus)
Description: as §1

[7] = test system: velvetleaf (Abutilon theophrasti)
Description: as §1

Q: How did the “Plant response rating (0 to 100 scale), Wheat” value ([1]; Postemergence, 1000 g ai/ha) turn out when `Clc1cc(Cl)cc(-c2n[nH]cc2C(=NNc2ccccc2)c2ccccc2)c1` [Compound 33] was run?
A: 0

Q: And the “Plant response rating (0 to 100 scale), Wheat” value ([1]; Preemergence, 1000 g ai/ha)?
A: 0

Q: What about the “Plant response rating (0 to 100 scale), Barnyardgrass” value ([2]; Postemergence, 1000 g ai/ha) of the same molecule?
A: 0

Q: What about the “Plant response rating (0 to 100 scale), Barnyardgrass” value ([2]; Preemergence, 1000 g ai/ha) of the same molecule?
A: 0

Q: And the “Plant response rating (0 to 100 scale), Corn” value (corn (Zea mays); Postemergence, 1000 g ai/ha)?
A: 0

Q: What about the “Plant response rating (0 to 100 scale), Corn” value (corn (Zea mays); Preemergence, 1000 g ai/ha) of the same molecule?
A: 0

Q: And the “Plant response rating (0 to 100 scale), Crabgrass, Large” value ([3]; Postemergence, 1000 g ai/ha)?
A: 0

Q: What about the “Plant response rating (0 to 100 scale), Crabgrass, Large” value ([3]; Preemergence, 1000 g ai/ha) of the same molecule?
A: 0

Q: What about the “Plant response rating (0 to 100 scale), Foxtail, Giant” value ([4]; Postemergence, 1000 g ai/ha) of the same molecule?
A: 0

Q: What about the “Plant response rating (0 to 100 scale), Foxtail, Giant” value ([4]; Preemergence, 1000 g ai/ha) of the same molecule?
A: 0

Q: What about the “Plant response rating (0 to 100 scale), Morningglory” value ([5]; Postemergence, 1000 g ai/ha) of the same molecule?
A: 0

Q: What about the “Plant response rating (0 to 100 scale), Morningglory” value ([5]; Preemergence, 1000 g ai/ha) of the same molecule?
A: 0

Q: What about the “Plant response rating (0 to 100 scale), Pigweed” value ([6]; Postemergence, 1000 g ai/ha) of the same molecule?
A: 100

Q: And the “Plant response rating (0 to 100 scale), Pigweed” value ([6]; Preemergence, 1000 g ai/ha)?
A: 100

Q: And the “Plant response rating (0 to 100 scale), Velvetleaf” value ([7]; Postemergence, 1000 g ai/ha)?
A: 100

Q: What about the “Plant response rating (0 to 100 scale), Velvetleaf” value ([7]; Preemergence, 1000 g ai/ha) of the same molecule?
A: 80

Q: For `FC(F)(F)Cn1cc(C(=NNc2ccccc2)c2ccccc2)c(-c2cc(Cl)cc(Cl)c2)n1` [Compound 34], which “Plant response rating (0 to 100 scale), Wheat” value ([1]; Postemergence, 125 g ai/ha) is on record?
A: 0

Q: What about the “Plant response rating (0 to 100 scale), Wheat” value ([1]; Postemergence, 500 g ai/ha) of the same molecule?
A: 0

Q: And the “Wheat plant response rating (0 = no effect, 100 = complete control)” value ([1]; Preemergence, 125 g ai/ha)?
A: 0

Q: And the “Plant response rating (0 to 100 scale), Wheat” value ([1]; Preemergence, 500 g ai/ha)?
A: 0

Q: What about the “Plant response rating (0 to 100 scale), Barnyardgrass” value ([2]; Postemergence, 125 g ai/ha) of the same molecule?
A: 0

Q: What about the “Plant response rating (0 to 100 scale), Barnyardgrass” value ([2]; Postemergence, 500 g ai/ha) of the same molecule?
A: 0

Q: And the “Barnyardgrass plant response rating (0 = no effect, 100 = complete control)” value ([2]; Preemergence, 125 g ai/ha)?
A: 0

Q: What about the “Plant response rating (0 to 100 scale), Barnyardgrass” value ([2]; Preemergence, 500 g ai/ha) of the same molecule?
A: 0

Q: What about the “Plant response rating (0 to 100 scale), Corn” value (corn (Zea mays); Postemergence, 125 g ai/ha) of the same molecule?
A: 0

Q: And the “Plant response rating (0 to 100 scale), Corn” value (corn (Zea mays); Postemergence, 500 g ai/ha)?
A: 0

Q: And the “Corn plant response rating (0 = no effect, 100 = complete control)” value (corn (Zea mays); Preemergence, 125 g ai/ha)?
A: 0

Q: What about the “Plant response rating (0 to 100 scale), Corn” value (corn (Zea mays); Preemergence, 500 g ai/ha) of the same molecule?
A: 0

Q: What about the “Plant response rating (0 to 100 scale), Crabgrass, Large” value ([3]; Postemergence, 125 g ai/ha) of the same molecule?
A: 0

Q: And the “Plant response rating (0 to 100 scale), Crabgrass, Large” value ([3]; Postemergence, 500 g ai/ha)?
A: 0

Q: What about the “Crabgrass, Large plant response rating (0 = no effect, 100 = complete control)” value ([3]; Preemergence, 125 g ai/ha) of the same molecule?
A: 0

Q: And the “Plant response rating (0 to 100 scale), Crabgrass, Large” value ([3]; Preemergence, 500 g ai/ha)?
A: 0

Q: What about the “Plant response rating (0 to 100 scale), Foxtail, Giant” value ([4]; Postemergence, 125 g ai/ha) of the same molecule?
A: 0

Q: And the “Plant response rating (0 to 100 scale), Foxtail, Giant” value ([4]; Postemergence, 500 g ai/ha)?
A: 0

Q: What about the “Foxtail, Giant plant response rating (0 = no effect, 100 = complete control)” value ([4]; Preemergence, 125 g ai/ha) of the same molecule?
A: 0

Q: And the “Plant response rating (0 to 100 scale), Foxtail, Giant” value ([4]; Preemergence, 500 g ai/ha)?
A: 0

Q: What about the “Plant response rating (0 to 100 scale), Morningglory” value ([5]; Postemergence, 125 g ai/ha) of the same molecule?
A: 0

Q: And the “Plant response rating (0 to 100 scale), Morningglory” value ([5]; Postemergence, 500 g ai/ha)?
A: 0

Q: What about the “Morningglory plant response rating (0 = no effect, 100 = complete control)” value ([5]; Preemergence, 125 g ai/ha) of the same molecule?
A: 0

Q: What about the “Plant response rating (0 to 100 scale), Morningglory” value ([5]; Preemergence, 500 g ai/ha) of the same molecule?
A: 0

Q: What about the “Plant response rating (0 to 100 scale), Pigweed” value ([6]; Postemergence, 125 g ai/ha) of the same molecule?
A: 0

Q: And the “Plant response rating (0 to 100 scale), Pigweed” value ([6]; Postemergence, 500 g ai/ha)?
A: 20

Q: What about the “Pigweed plant response rating (0 = no effect, 100 = complete control)” value ([6]; Preemergence, 125 g ai/ha) of the same molecule?
A: 0

Q: What about the “Plant response rating (0 to 100 scale), Pigweed” value ([6]; Preemergence, 500 g ai/ha) of the same molecule?
A: 0

Q: What about the “Plant response rating (0 to 100 scale), Velvetleaf” value ([7]; Postemergence, 125 g ai/ha) of the same molecule?
A: 10

Q: And the “Plant response rating (0 to 100 scale), Velvetleaf” value ([7]; Postemergence, 500 g ai/ha)?
A: 30

Q: What about the “Velvetleaf plant response rating (0 = no effect, 100 = complete control)” value ([7]; Preemergence, 125 g ai/ha) of the same molecule?
A: 0

Q: What about the “Plant response rating (0 to 100 scale), Velvetleaf” value ([7]; Preemergence, 500 g ai/ha) of the same molecule?
A: 0

Q: What does the source list for `CCn1cc(C(=NNc2ccccc2)c2ccccc2)c(-c2cc(Cl)cc(Cl)c2)n1` [Compound 36]?
A: Plant response rating (0 to 100 scale), Wheat ([1]; Postemergence, 125 g ai/ha): 0; Plant response rating (0 to 100 scale), Wheat ([1]; Postemergence, 500 g ai/ha): 0; Wheat plant response rating (0 = no effect, 100 = complete control) ([1]; Preemergence, 125 g ai/ha): 0; Plant response rating (0 to 100 scale), Wheat ([1]; Preemergence, 500 g ai/ha): 0; Plant response rating (0 to 100 scale), Barnyardgrass ([2]; Postemergence, 125 g ai/ha): 0; Plant response rating (0 to 100 scale), Barnyardgrass ([2]; Postemergence, 500 g ai/ha): 0; Barnyardgrass plant response rating (0 = no effect, 100 = complete control) ([2]; Preemergence, 125 g ai/ha): 0; Plant response rating (0 to 100 scale), Barnyardgrass ([2]; Preemergence, 500 g ai/ha): 0; Plant response rating (0 to 100 scale), Corn (corn (Zea mays); Postemergence, 125 g ai/ha): 0; Plant response rating (0 to 100 scale), Corn (corn (Zea mays); Postemergence, 500 g ai/ha): 0; Corn plant response rating (0 = no effect, 100 = complete control) (corn (Zea mays); Preemergence, 125 g ai/ha): 0; Plant response rating (0 to 100 scale), Corn (corn (Zea mays); Preemergence, 500 g ai/ha): 0; Plant response rating (0 to 100 scale), Crabgrass, Large ([3]; Postemergence, 125 g ai/ha): 0; Plant response rating (0 to 100 scale), Crabgrass, Large ([3]; Postemergence, 500 g ai/ha): 0; Crabgrass, Large plant response rating (0 = no effect, 100 = complete control) ([3]; Preemergence, 125 g ai/ha): 0; Plant response rating (0 to 100 scale), Crabgrass, Large ([3]; Preemergence, 500 g ai/ha): 0; Plant response rating (0 to 100 scale), Foxtail, Giant ([4]; Postemergence, 125 g ai/ha): 0; Plant response rating (0 to 100 scale), Foxtail, Giant ([4]; Postemergence, 500 g ai/ha): 0; Foxtail, Giant plant response rating (0 = no effect, 100 = complete control) ([4]; Preemergence, 125 g ai/ha): 0; Plant response rating (0 to 100 scale), Foxtail, Giant ([4]; Preemergence, 500 g ai/ha): 0; Plant response rating (0 to 100 scale), Morningglory ([5]; Postemergence, 125 g ai/ha): 0; Plant response rating (0 to 100 scale), Morningglory ([5]; Postemergence, 500 g ai/ha): 0; Morningglory plant response rating (0 = no effect, 100 = complete control) ([5]; Preemergence, 125 g ai/ha): 0; Plant response rating (0 to 100 scale), Morningglory ([5]; Preemergence, 500 g ai/ha): 0; Plant response rating (0 to 100 scale), Pigweed ([6]; Postemergence, 125 g ai/ha): 30; Plant response rating (0 to 100 scale), Pigweed ([6]; Postemergence, 500 g ai/ha): 80; Pigweed plant response rating (0 = no effect, 100 = complete control) ([6]; Preemergence, 125 g ai/ha): 0; Plant response rating (0 to 100 scale), Pigweed ([6]; Preemergence, 500 g ai/ha): 70; Plant response rating (0 to 100 scale), Velvetleaf ([7]; Postemergence, 125 g ai/ha): 70; Plant response rating (0 to 100 scale), Velvetleaf ([7]; Postemergence, 500 g ai/ha): 90; Velvetleaf plant response rating (0 = no effect, 100 = complete control) ([7]; Preemergence, 125 g ai/ha): 20; Plant response rating (0 to 100 scale), Velvetleaf ([7]; Preemergence, 500 g ai/ha): 20

Q: Which “Plant response rating (0 to 100 scale), Wheat” value ([1]; Postemergence, 1000 g ai/ha) does the source give for `Brc1cc(Br)cc(-c2n[nH]cc2C2(c3ccccc3)SCCS2)c1` [Compound 62] here?
A: 0

Q: What about the “Plant response rating (0 to 100 scale), Wheat” value ([1]; Preemergence, 1000 g ai/ha) of the same molecule?
A: 0

Q: What about the “Plant response rating (0 to 100 scale), Barnyardgrass” value ([2]; Postemergence, 1000 g ai/ha) of the same molecule?
A: 0

Q: And the “Plant response rating (0 to 100 scale), Barnyardgrass” value ([2]; Preemergence, 1000 g ai/ha)?
A: 0

Q: And the “Plant response rating (0 to 100 scale), Corn” value (corn (Zea mays); Postemergence, 1000 g ai/ha)?
A: 0

Q: What about the “Plant response rating (0 to 100 scale), Corn” value (corn (Zea mays); Preemergence, 1000 g ai/ha) of the same molecule?
A: 0

Q: And the “Plant response rating (0 to 100 scale), Crabgrass, Large” value ([3]; Postemergence, 1000 g ai/ha)?
A: 0

Q: And the “Plant response rating (0 to 100 scale), Crabgrass, Large” value ([3]; Preemergence, 1000 g ai/ha)?
A: 0

Q: What about the “Plant response rating (0 to 100 scale), Foxtail, Giant” value ([4]; Postemergence, 1000 g ai/ha) of the same molecule?
A: 0

Q: And the “Plant response rating (0 to 100 scale), Foxtail, Giant” value ([4]; Preemergence, 1000 g ai/ha)?
A: 0

Q: What about the “Plant response rating (0 to 100 scale), Pigweed” value ([6]; Postemergence, 1000 g ai/ha) of the same molecule?
A: 100

Q: What about the “Plant response rating (0 to 100 scale), Pigweed” value ([6]; Preemergence, 1000 g ai/ha) of the same molecule?
A: 80

Q: What about the “Plant response rating (0 to 100 scale), Velvetleaf” value ([7]; Postemergence, 1000 g ai/ha) of the same molecule?
A: 90

Q: What about the “Plant response rating (0 to 100 scale), Velvetleaf” value ([7]; Preemergence, 1000 g ai/ha) of the same molecule?
A: 60
